Test system: A. tumefaciens NTL4
Format: cell-based, Agrobacterium tumefaciens
Details: for highest expression level (green fluorescence intensity, sfgfp reporter): highest induction concentration 10^3 μM; for basal expression level (green fluorescence intensity, sfgfp reporter): lowest induction concentration 10^−3 μM
Experimental: GFP measurement. An inoculum of A. tumefaciens was grown overnight to stationary phase and then transferred to fresh media at a 1:100 dilution. The new inocula were added with inducers to a final concentration of 1×10^−3 to 1×10^3 μmol/ml when their optical density at 600 nm (OD600) reached 0.5. After 6 h of incubation, cells were collected and resuspended in 1×PBS buffer. Then 100 μL of suitably diluted cultures were added into 96-well microtiter plates. OD600 and relative green fluorescence were measured by a BioTek® microplate reader H1. Congo red plate assay. The dye was dissolved in ddH2O at 20 mg ml^−1 and passed through 0.2 μm filters immediately. Four ml of filtered Congo Red was added per L (final concentration: 80 μg/ml) to generate LB-CR agar medium. The overnight cultured cultures were diluted to an OD600 of 1.0. 10 μl cultures were plated on LB-CR agar with appropriate antibiotics, followed by incubation at 30° C. for 24 hours.
A reliable induction system is required to achieve precise control of gene expression. […] An ori from the broad host-range plasmid pBBR1, which propagates in both E. coli and A. tumefaciens, was utilized for the origin of replication (Szpirer et al., J Bacteriol. 183:2101-2110, 2001). To evaluate the performance of these inducible systems, a green fluorescence protein gene (sfgfp) was utilized as a reporter gene, and placed under the control of the corresponding inducible promoters, Ptac, Pcym, Pvan, PBAD, Pug and Psal, respectively. The repressor genes of the inducible systems (lacI, cymR, vanR, araE, ttgR and nahR) were driven by a common constitutive promoter (Pcon). The resulting inducible “expression circuits” were transformed into A. tumefaciens NTL4.
To evaluate these induction systems, green fluorescence intensities of cells transformed with the plasmids were measured at various concentrations of inducers, ranging from 10^−3 to 10^3 μM.

Structure (SMILES)	highest expression level (green fluorescence intensity, sfgfp reporter)	basal expression level (green fluorescence intensity, sfgfp reporter)
CC(C)c1ccc(C(=O)O)cc1 [Cum, cumic acid]	3×10^4	1.4×10^2
COc1cc(C(=O)O)ccc1O [Van, vanillic acid]	7.7×10^4	3.1×10^2
CC(C)S[C@@H]1O[C@H](CO)[C@H](O)[C@H](O)[C@H]1O [IPTG, β-d-1-thiogalactopyranoside]	5.2×10^5	6.6×10^4
O=C1C[C@@H](c2ccc(O)cc2)Oc2cc(O)cc(O)c21 [Nar, naringenin]	1.2×10^4	1.8×10^2
O=C[C@@H](O)[C@H](O)[C@H](O)CO [Ara, arabinose]	1.8×10^3	5.5×10^2

From US20220411811A1, “SYNTHETIC TOOLKIT FOR PLANT TRANSFORMATION” (priority 2021, published 2022)
